The record followed here is publication PMC11350846, “Synthesis of Second-Generation Analogs of Temporin-SHa Peptide Having Broad-Spectrum Antibacterial and Anticancer Effects” (Antibiotics, 2024).

The subject of one data set is human cancer cells. Type of data set: cell-based. The settings on record: mean of all human cancer cells tested; read-out: IC50, mean over cancer cells. On the procedure:
(§1) The antiproliferative activity of the peptides was evaluated, as previously described using human cancer cell lines (A549 (lung), A2780 (ovary), HepG-2 (liver), MCF-7 (breast), MiaPaCa-2 (pancreas), MNT-1 (skin), and PC-3 (prostate)) and normal human lung fibroblasts (IMR-90) or epithelial cells (BEAS-2B). The cells were cultured in DMEM supplemented with 10% FBS, 1% L-glutamine, and 1% antibiotics at 37 °C in a 5% CO2 incubator. For the antiproliferative assay, cells were seeded in 96-well plates at approximately 3000 cells/well. Twenty-four hours later, cells were treated with increasing concentrations of peptides (1:2 serial dilution from 100 µM to 0 µM) for 48 h. After treatment, the number of viable cells was determined using a resazurin-based assay, and the fluorescence intensity was measured with a microplate reader (Ex 530 nm/Em 590 nm). The IC50 values of the peptides (i.e., the concentrations causing 50% inhibition of cell proliferation) were determined using GraphPad® Prism 7 software. The experiments were performed in triplicate (n = 3). The cytotoxicity of the peptides was also evaluated using confluent/no-dividing cells, as previously described. Briefly, human cells were seeded onto 96-well plates at 20,000 cells/well. When they reached 80–90% confluence (after 24–48 h), cells were treated with escalating concentrations of peptides. After 48h incubation, cell viability was measured using a resazurin assay and CC50 (i.e., the concentrations causing 50% inhibition of cell viability) and determined using GraphPad® Prism 7 software. The experiments were performed in triplicate (n = 3).

Data set [1] in a line: Circular dichroism, secondary structure (Bestsel). The settings on record: CD in 20 mM SDS. The class given is physicochemical. On the procedure: Circular dichroism of temporin SHa, [G10a]-SHa and newly synthesised second-generation analogs of [G10a]-SHa in 20 mM SDS are shown in Figure 2. In lipidic environments mimicked by SDS, peptides adopt an alpha helical structure due to their amphipathic nature. This structural feature is important for their antimicrobial activity, allowing for their insertion into bacterial membranes. The hydrophobic region of the peptide interacts with the hydrophobic portion of the lipid while the hydrophilic region remains exposed to the aqueous environment. The percentage of alpha helix, as well as the percentage of other secondary structures, was determined from CD data using Bestsel software (https://bestsel.elte.hu/index.php, (accessed on 22 June 2024)) (Table 3). Temporin-SHa (1) adopted a 49.5% α-helical structure, while its first-generation analog [G10a]-SHa (2) acquired a 82.4% alpha helical structure. The 84.6%, 88.7%, 4.7%, and 53.8% alpha helical structures were acquired for second-generation analogs 3, 4, 5, and 6, respectively.
The far-ultraviolet CD spectra were obtained using a JASCO J-810 spectropolarimeter (Jasco, Tokyo, Japan). In addition to this, the quartz cuvette of 10 mm path length was used. The temperature was maintained at 22 °C, and the output of the instrument was calibrated using D-(+)-10-camphorsulfonic acid. The peptides, which were present at a concentration of 1.0 mg/mL, were dissolved completely in 20 mM SDS at a concentration of 15 µM [21]. The instrument was set to record wavelengths ranging from 190 to 260 nm with a bandwidth of 2 nm. Ten consecutive scans (accumulations) were recorded for each spectrum at a rate of 50 nm/min, and the baseline was acquired under the same conditions.

Data set [2] concerns human cancer and normal/non-cancerous cells. The class given is cell-based. Particulars: cancer or normal cells, except breast cancer MCF-7 cells; read-out: IC50, cancer or normal cell proliferation. On the procedure: as §1

Where a SMILES comes first, the peptide text is derived from it. [ ]: non-standard residue; d: D form.

Turning to `CC[C@H](C)[C@H](NC(=O)CNC(=O)[C@H](CO)NC(=O)[C@H](CC(C)C)NC(=O)[C@@H](N)Cc1ccccc1)C(=O)N[C@H](C(=O)NCC(=O)N[C@@H](CCSC)C(=O)N[C@@H](CC(C)C)C(=O)N[C@H](C)C(=O)N[C@@H](CCCCN)C(=O)N[C@@H](CC(C)C)C(=O)N[C@@H](Cc1ccccc1)C(N)=O)C(C)C` [[G10a]-SHa (2), H-Phe^1-Leu^2-Ser^3-Gly^4-IIe^5-Val^6-Gly^7-Met^8-Leu^9-D-Ala^10-Lys^11-Leu^12-Phe^13-NH2] (H-FLSGIVGML[dA]KLF-NH2), in the data set on human cancer cells, the IC50 turned out to be 18.7 ± 9 µM. In data set [1], the Antiparallel worked out at 17.60%, the “Helix (alpha helical structure)” value turned out to be 82.4%, the Others is on record as 0.00% and the Parallel is recorded as 0.00%. The molecule also had a Turn in data set [1] of 0.00%.
Regarding `CC[C@H](C)[C@H](NC(=O)CNC(=O)[C@H](CO)NC(=O)[C@H](CC(C)C)NC(=O)[C@@H](N)Cc1ccccc1)C(=O)N[C@H](C(=O)NCC(=O)N[C@@H](CCSC)C(=O)N[C@@H](CC(C)C)C(=O)NCC(=O)N[C@@H](CCCCN)C(=O)N[C@@H](CC(C)C)C(=O)N[C@@H](Cc1ccccc1)C(N)=O)C(C)C` [Temporin-SHa (1), H-Phe^1-Leu^2-Ser^3-Gly^4-IIe^5-Val^6-Gly^7-Met^8-Leu^9-Gly^10-Lys^11-Leu^12-Phe^13-NH2, reference compound] (H-FLSGIVGMLGKLF-NH2), the IC50 in data set [2] was greater than 100 µM. Further, in data set [1], the Antiparallel worked out at 0.00%, the “Helix (alpha helical structure)” value came out at 49.5%, the Others is on record as 49.80% and the Parallel is recorded as 0.00%. The same molecule had a Turn in data set [1] of 0.70%.
